According to PubChem BioAssay AID248 (DTP/NCI, 2004):
Several values for one entry are separate records, joined by “and”; a condition that tells them apart may be missing. Identical values can stand only once. Inconclusive results and toxic doses are left out. Cut-off read from the data, not from the text of the source: active = T/C of 150% or more; inactive = T/C below 125%.

System: L1210 leukemia ip in BDF1 mice, survival T/C
Experiment: NCI In Vivo Anticancer Drug Screen. Data for tumor model L1210 Leukemia (intraperitoneal) in B6D2F1 (BDF1) mice
Conditions: endpoint: mean survival time, higher = longer survival
How it was run: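 Transplanted-tumor mice were given test agent; controls received vehicle only. Survival readings from the two groups were divided (treated over control).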

[1] = dose: 50.0 mg/kg/injection, schedule: Q01DX001 (ip), vehicle: saline
[2] = dose: 100.0 mg/kg/injection, schedule: Q01DX001 (ip), vehicle: saline
[3] = dose: 200.0 mg/kg/injection, schedule: Q01DX001 (ip), vehicle: saline
[4] = dose: 400.0 mg/kg/injection, schedule: Q01DX001 (ip), vehicle: saline
[5] = dose: 100.0 mg/kg/injection, schedule: Q01DX009 (ip), vehicle: saline with Tween-80
[6] = dose: 100.0 mg/kg/injection, schedule: Q04DX003 (ip), vehicle: saline with Tween-80
[7] = dose: 200.0 mg/kg/injection, schedule: Q01DX009 (ip), vehicle: saline with Tween-80
[8] = dose: 200.0 mg/kg/injection, schedule: Q04DX003 (ip), vehicle: saline with Tween-80
[9] = dose: 400.0 mg/kg/injection, schedule: Q01DX009 (ip), vehicle: saline with Tween-80
[10] = dose: 400.0 mg/kg/injection, schedule: Q04DX003 (ip), vehicle: saline with Tween-80
[11] = dose: 100.0 mg/kg/injection, schedule: Q04DX003 (ip), vehicle: Klucel (hydroxypropylcellulose) (HPC)
[12] = dose: 200.0 mg/kg/injection, schedule: Q04DX003 (ip), vehicle: Klucel (hydroxypropylcellulose) (HPC)
[13] = dose: 400.0 mg/kg/injection, schedule: Q04DX003 (ip), vehicle: Klucel (hydroxypropylcellulose) (HPC)
[14] = dose: 100.0 mg/kg/injection, schedule: Q01DX009 (ip), vehicle: Klucel (hydroxypropylcellulose) (HPC)
[15] = dose: 100.0 mg/kg/injection, schedule: Q04DX002 (ip), vehicle: Klucel (hydroxypropylcellulose) (HPC)
[16] = dose: 200.0 mg/kg/injection, schedule: Q01DX009 (ip), vehicle: Klucel (hydroxypropylcellulose) (HPC)
[17] = dose: 200.0 mg/kg/injection, schedule: Q04DX002 (ip), vehicle: Klucel (hydroxypropylcellulose) (HPC)
[18] = dose: 400.0 mg/kg/injection, schedule: Q01DX009 (ip), vehicle: Klucel (hydroxypropylcellulose) (HPC)
[19] = dose: 400.0 mg/kg/injection, schedule: Q04DX002 (ip), vehicle: Klucel (hydroxypropylcellulose) (HPC)
[20] = dose: 50.0 mg/kg/injection, schedule: Q04DX002 (ip), vehicle: Klucel (hydroxypropylcellulose) (HPC)

Measured: T/C

COc1ccc(/C=N\NC(=O)CCCC(=O)N/N=C/c2ccc(OC)c(OC)c2)cc1OC
inactive: [1] 100 % of control | [2] 100 % of control | [3] 93 % of control | [4] 100 % of control

O=C(NC(Cc1ccccc1)C(=O)NCCCCCCCCCCNC(=O)C(Cc1ccccc1)NC(=O)OCc1ccccc1)OCc1ccccc1 (configuration not stated)
inactive: [1] 92 % of control | [2] 98 % of control | [3] 110 % of control | [4] 104 % of control

O=C(CCCCCCCCC(=O)N/N=C/c1ccccc1)N/N=C/c1ccccc1
inactive: dose: 100.0 mg/kg/injection, schedule: Q01DX001 (ip), vehicle: saline with Tween-80 96 % of control and 90 % of control | [5] 102 % of control and 92 % of control | dose: 100.0 mg/kg/injection, schedule: Q04DX002 (ip), vehicle: saline with Tween-80 93 % of control and 97 % of control | [6] 97 % of control | dose: 200.0 mg/kg/injection, schedule: Q01DX001 (ip), vehicle: saline with Tween-80 88 % of control | [7] 93 % of control and 97 % of control | dose: 200.0 mg/kg/injection, schedule: Q04DX002 (ip), vehicle: saline with Tween-80 95 % of control and 87 % of control | [8] 97 % of control | dose: 400.0 mg/kg/injection, schedule: Q01DX001 (ip), vehicle: saline with Tween-80 86 % of control and 91 % of control | [9] 91 % of control and 92 % of control | dose: 400.0 mg/kg/injection, schedule: Q04DX002 (ip), vehicle: saline with Tween-80 93 % of control and 90 % of control | [10] 92 % of control

O=C1NC(=O)C2(CCN(CC3COc4ccccc4O3)CC2)C(=O)N1 (configuration not stated)
inactive: [11] 97 % of control | [12] 103 % of control | [13] 109 % of control

CC(C)N(c1ccc(C(=NO)c2ccc(N(C(C)C)C(C)C)cc2)cc1)C(C)C
inactive: [11] 90 % of control | [12] 88 % of control | [13] 92 % of control

Cc1ccc2cccc(CC(=O)O)c2c1
inactive: dose: 100.0 mg/kg/injection, schedule: Q01DX005 (ip), vehicle: saline with Tween-80 104 % of control | [5] 96 % of control | dose: 200.0 mg/kg/injection, schedule: Q01DX005 (ip), vehicle: saline with Tween-80 112 % of control | [7] 96 % of control | dose: 400.0 mg/kg/injection, schedule: Q01DX005 (ip), vehicle: saline with Tween-80 108 % of control | [9] 115 % of control

O=C(Nc1ccc([N+](=O)[O-])cc1)Nc1ccc([N+](=O)[O-])cc1
inactive: [14] 93 % of control | dose: 100.0 mg/kg/injection, schedule: Q01DX009 (ip), vehicle: saline sonified 109 % of control | [5] 109 % of control | [15] 101 % of control | [11] 104 % of control | dose: 100.0 mg/kg/injection, schedule: Q04DX003 (ip), vehicle: saline sonified 96 % of control | [6] 100 % of control | [16] 94 % of control | dose: 200.0 mg/kg/injection, schedule: Q01DX009 (ip), vehicle: saline sonified 110 % of control | [7] 90 % of control | [17] 90 % of control | [12] 104 % of control | dose: 200.0 mg/kg/injection, schedule: Q04DX003 (ip), vehicle: saline sonified 91 % of control | [8] 102 % of control | [18] 88 % of control | dose: 400.0 mg/kg/injection, schedule: Q01DX009 (ip), vehicle: saline sonified 98 % of control | [9] 86 % of control | [19] 97 % of control | [13] 98 % of control | dose: 400.0 mg/kg/injection, schedule: Q04DX003 (ip), vehicle: saline sonified 93 % of control | [10] 97 % of control

Brc1cccc[n+]1CCCC[n+]1ccccc1Br
inactive: dose: 2.2 mg/kg/injection, schedule: Q01DX Z (ip), vehicle: saline 96 % of control | dose: 3.3 mg/kg/injection, schedule: Q01DX Z (ip), vehicle: saline 100 % of control | dose: 5.0 mg/kg/injection, schedule: Q01DX Z (ip), vehicle: saline 87 % of control | dose: 10.0 mg/kg/injection, schedule: Q01DX001 (ip), vehicle: saline 96 % of control | dose: 20.0 mg/kg/injection, schedule: Q01DX001 (ip), vehicle: saline 93 % of control

[O-][n+]1ccccc1/C=C\c1ccccc1
inactive: [2] 92 % of control | [3] 94 % of control

O=C1NC(=O)C(c2ccccc2)(c2ccsc2)N1 (configuration not stated)
inactive: [2] 95 % of control | [3] 90 % of control | [4] 95 % of control

O=c1oc2cc(O)ccc2c2ccccc12
inactive: [11] 98 % of control | [12] 96 % of control | [13] 102 % of control

CCCCCCC(C)Cl (configuration not stated)
inactive: [5] 105 % of control | [7] 108 % of control | [9] 106 % of control

CC(=O)/C=C(\C)OB(F)F
inactive: [1] 98 % of control | [2] 95 % of control

CC(C)(C)C(=O)Cn1nnnc1C(=O)C(C)(C)C
inactive: dose: 50.0 mg/kg/injection, schedule: Q04DX003 (ip), vehicle: Klucel (hydroxypropylcellulose) (HPC) 105 % of control | dose: 100.0 mg/kg/injection, schedule: Q01DX001 (ip), vehicle: Klucel (hydroxypropylcellulose) (HPC) 105 % of control | [11] 103 % of control | dose: 200.0 mg/kg/injection, schedule: Q01DX001 (ip), vehicle: Klucel (hydroxypropylcellulose) (HPC) 108 % of control | [12] 100 % of control

c1ccc(Cc2ccccc2)cc1
inactive: [15] 101 % of control | [17] 105 % of control | [19] 92 % of control

O=C(NC(C(=O)c1ccccc1)c1ccccc1)c1ccccc1 (configuration not stated)
inactive: [20] 98 % of control | [14] 86 % of control | [15] 92 % of control | [17] 106 % of control | [18] 101 % of control

CCN(CC)CC(=O)NCC(CCCCN1CCCC1)(c1cccc2ccccc12)C(C)C (configuration not stated)
inactive: dose: 6.25 mg/kg/injection, schedule: Q04DX003 (ip), vehicle: saline 104 % of control | dose: 12.5 mg/kg/injection, schedule: Q04DX003 (ip), vehicle: saline 110 % of control | dose: 25.0 mg/kg/injection, schedule: Q04DX003 (ip), vehicle: saline 93 % of control

CCN(CC)CCCNC(c1ccccc1)C(Cl)(Cl)Cl (configuration not stated)
inactive: [2] 96 % of control

O=C(OC(=O)c1cccc2ccccc12)c1cccc2ccccc12
inactive: [2] 94 % of control | [3] 102 % of control | [4] 94 % of control

CCC(C)OC(=O)C(C)OC(=O)OCCOCCOC(=O)OC(C)C(=O)OC(C)CC (configuration not stated)
inactive: [2] 96 % of control | [3] 100 % of control | [4] 96 % of control

CCN(CC)CC(=O)NCC(CCN1CCOCC1)c1cccc2ccccc12 (configuration not stated)
inactive: dose: 100.0 mg/kg/injection, schedule: Q04DX003 (ip), vehicle: saline 96 % of control | dose: 200.0 mg/kg/injection, schedule: Q04DX003 (ip), vehicle: saline 100 % of control | dose: 400.0 mg/kg/injection, schedule: Q04DX003 (ip), vehicle: saline 93 % of control

CC1(C)CN=C(c2cccc([N+](=O)[O-])c2)O1
inactive: [14] 98 % of control | [16] 105 % of control | [18] 100 % of control

O/N=C(\CC(O)(C(F)(F)F)C(F)(F)F)c1cccs1
inactive: dose: 50.0 mg/kg/injection, schedule: Q04DX003 (ip), vehicle: saline with Tween-80 98 % of control | [6] 98 % of control | [8] 98 % of control | [10] 95 % of control

CCCCNC(=O)CCl
inactive: [2] 96 % of control | [3] 113 % of control

Nc1ccccc1CCc1ccccc1
inactive: [15] 103 % of control | [17] 100 % of control | [19] 100 % of control

C=C(C)C(=O)OC (tested in a mixture with another compound)
inactive: [20] 107 % of control | dose: 75.0 mg/kg/injection, schedule: Q01DX001 (ip), vehicle: other 96 % of control | [15] 101 % of control | dose: 150.0 mg/kg/injection, schedule: Q01DX001 (ip), vehicle: other 94 % of control | [17] 93 % of control | dose: 300.0 mg/kg/injection, schedule: Q01DX001 (ip), vehicle: other 91 % of control | [19] 90 % of control

CC(C)(C)NC(N)=O
inactive: dose: 100.0 mg/kg/injection, schedule: Q01DX009 (ip), vehicle: saline 100 % of control | dose: 200.0 mg/kg/injection, schedule: Q01DX009 (ip), vehicle: saline 97 % of control | dose: 400.0 mg/kg/injection, schedule: Q01DX009 (ip), vehicle: saline 100 % of control

COc1c(NC(=O)COc2ccc(Cl)cc2)cccc1[N+](=O)[O-]
inactive: [5] 96 % of control | [7] 100 % of control | [9] 94 % of control
